Consider eleven compounds from PubChem BioAssay (NCI).

Assay in all cases: inhibition of tumour cell growth, NCI panel, 48 h
Experiment [1] relates to A549 NSCLC.
The subject of experiment [2] is ACHN renal.
The subject of experiment [3] is COLO 205 colon.
Experiment [4] has as its system DU-145 prostate.
In experiment [5] the test system is MCF7 breast.
Experiment [6] deals with MDA-MB-231 breast.
In experiment [7] the test system is MDA-N.
The test system of experiment [8] is NCI-H23 lung.
Experiment [9] has as its system NCI/ADR-RES ovarian.
For experiment [10], the system named is SK-MEL-2 melanoma.
For experiment [11], the system named is SK-OV-3 ovarian.
Experiment [12] deals with T-47D breast.

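These data come from cells grown in 96-well plates and exposed to compound for 48 hours at five concentrations. TGI is the concentration that stops growth completely.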

With `CC1(C)CC2=C(Sc3ccccc3N2)C(=O)C1C(=O)C(=O)Nc1cc(Cl)ccc1Cl` (stereo not drawn), the TGI in experiment [1], in experiment [2], in [3], in experiment [4], in experiment [5] and in [6] was above 100 µM throughout. The TGI in [7], in experiment [8], in experiment [9], in experiment [10], in [11] and in experiment [12] was above 100 µM each time.

`Cc1cc(S(=O)(=O)Nc2nc3ccccc3n2-c2ccccc2)c(S)cc1Cl`: the TGI in experiment [1], in experiment [2], in experiment [3], in experiment [4], in [5] and in experiment [6] was above 100 µM each time. The TGI in experiment [7], in experiment [9], in experiment [10] and in experiment [12] was above 100 µM throughout.

On to `Cc1cc(C)c2c(=N)c3ccccc3n(CCCCCCO)c2n1`, for which the TGI in experiment [1] was found to be 17.7 µM; in experiment [2] it was 6.81 µM; in [3], 2.84 µM; in [4], 25.3 µM; in experiment [5], 8.56 µM; in experiment [6] it was 15.1 µM. Further, the TGI was 7.42 µM in [7]; 6.69 µM in experiment [8]; 8.38 µM in experiment [9]; 9.47 µM in experiment [10]; 18.5 µM in experiment [11]; 12.1 µM in experiment [12].

As for `Cc1nn(C(=O)c2ccncc2)c2c1C(c1cccc([N+](=O)[O-])c1)SC(N)=N2` (stereo not drawn), the TGI in experiment [1], in experiment [2], in experiment [3], in [4], in experiment [5] and in experiment [6] was above 10 µM in each case. Also, the TGI in [7], in [8], in experiment [9], in experiment [10], in experiment [11] and in experiment [12] was above 10 µM in each case.

Regarding `COC(=O)/C=C/c1cc(OC)c2oc(-c3ccc(OC)c(OC)c3)c(C(=O)OC)c2c1`, the TGI in [1], in [2], in [3], in experiment [4], in experiment [5] and in [6] was above 100 µM throughout. For the same compound, the TGI in experiment [7], in experiment [8], in experiment [9], in [10], in [11] and in experiment [12] was above 100 µM in each case.

On to `COC1=CC(=O)c2c(O)c3c(c(O)c2C1=O)C[C@](C)(O)C[C@@H]3O`, for which the TGI in [1] was 9.81 µM; in [2], 16 µM; in experiment [3], 4.96 µM; in [4] it was 16 µM; in experiment [5] it was 16.3 µM; in [6], 28.3 µM. Also, the TGI turned out to be 3.35 µM in [7]; 6.7 µM in experiment [8]; 29 µM in [9]; 14.3 µM in experiment [10]; 41.6 µM in experiment [11]; 22.3 µM in [12].

As to `CN(C)Cc1cc(C(=O)/C=C/c2cccc(Cl)c2)cc(CN(C)C)c1O`, the TGI was 28.8 µM in experiment [1]; 10.3 µM in experiment [2]; 3.79 µM in [3]; 19.2 µM in [4]; 23.3 µM in experiment [5]; 8.87 µM in experiment [6]. For the same compound, the TGI in [7] is 10.3 µM; in experiment [8], 37.9 µM; in experiment [9] it was above 100 µM; in experiment [10], 26 µM; in experiment [12], 19.9 µM.

In the case of `CC1=C[C@@H](C)C[C@]2(C)CC[C@H](O2)[C@]23CC[C@](C)(C[C@H](O2)[C@@H]2O[C@@](C)(CC2=O)[C@@H](O)[C@H]2CC[C@@]4(CCC[C@@H](O4)[C@H](C)C(=O)O[C@H]4C[C@H]([C@]5(O)OCC[C@H](C)[C@@H]5O)O[C@H]4C=C1)O2)O3`, the TGI in experiment [1] is above 10 µM; in experiment [2], above 5.25 µM; in experiment [3] it was 0.00188 µM; in experiment [4], above 10 µM; in experiment [5], above 10 µM; in experiment [6], 0.238 µM. The TGI in experiment [7] was above 10 µM; in experiment [8] it was 0.0826 µM; in experiment [9] it was above 10 µM; in experiment [10] it was above 10 µM; in experiment [12], above 10 µM.

`c1csc(-c2csc(-c3ccsc3)c2)c1`: the TGI in experiment [1] is above 100 µM; in [2], above 100 µM; in experiment [3], above 100 µM; in experiment [4], above 100 µM; in [5], above 71.4 µM; in experiment [6] it was above 100 µM. Further, the TGI in experiment [7], in experiment [8], in [9], in experiment [10], in experiment [11] and in experiment [12] was above 100 µM throughout.

With `N#CC1(c2ccccc2)CCN(C2(c3ccccc3)CCCCC2)CC1`, the TGI in [1], in experiment [2], in [3], in experiment [4], in experiment [5] and in experiment [6] was above 100 µM each time. Also, the TGI in experiment [7], in experiment [8], in [9], in experiment [10], in [11] and in [12] was above 100 µM each time.

In the case of `COc1cc([C@H]2Oc3c(OC)cc(CCCO)cc3[C@@H]2CO)ccc1O`, the TGI in experiment [1], in experiment [2], in experiment [3], in experiment [4], in experiment [5] and in [6] was above 100 µM in each case. The TGI in [7], in experiment [8], in [9], in experiment [10], in [11] and in experiment [12] was above 100 µM throughout.
